According to article PMC8732328 (Nature microbiology, 2021):

Test system: all eight Enterococcus or Streptococcus strains
Test: MIC against eight Enterococcus or Streptococcus strains
Format: cell-based, Enterococcus and Streptococcus spp.

| Compound | activity against all eight Enterococcus or Streptococcus strains |
| --- | --- |
| nisin | active |
| ramoplanin | active |
| lysobactin | active |
| CN[C@H](CC(C)C)C(=O)N[C@H]1C(=O)N[C@@H](CC(N)=O)C(=O)N[C@H]2C(=O)N[C@H]3C(=O)N[C@H](C(=O)N[C@H](C(=O)O)c4cc(O)cc(O)c4-c4cc3ccc4O)[C@H](O)c3ccc(c(Cl)c3)Oc3cc2cc(c3O[C@@H]2O[C@H](CO)[C@@H](O)[C@H](O)[C@H]2O[C@H]2C[C@](C)(N)[C@H](O)[C@H](C)O2)Oc2ccc(cc2Cl)[C@H]1O [Van, vancomycin] | active |
